From ChEMBL document CHEMBL5303573, “Mapping human microbiome drug metabolism by gut bacteria and their genes” (Nature, 2019) come the findings set out here.

Structures are written as SMILES. Non-standard residues stand in square brackets, D forms with d. Residues, ends and D or L forms follow the SMILES beside them. pGlu = O=C1CC[C@@H](C(=O)O)N1; Thz = O=C(O)[C@@H]1CSCN1

The conditions of data set [1]: bacteroides intestinalis, 12 h, 2 µM.
Description: The drug is tested on Bacteroides intestinalis strain: DSM17393 for biotransformation. The drug concentrations were measured before and after a 12-h incubation by liquid-chromatography-coupled mass spectrometry (LC–MS)
The nature of data set [2]: The drug is tested on Collinsella aerofaciens strain: ATCC25986 for biotransformation. The drug concentrations were measured before and after a 12-h incubation by liquid-chromatography-coupled mass spectrometry (LC–MS). The note with it: 2 µM.
The nature of data set [3]: The drug is tested on Bacteroides vulgatus strain: ATCC8482 for biotransformation. The drug concentrations were measured before and after a 12-h incubation by liquid-chromatography-coupled mass spectrometry (LC–MS). Particulars: phocaeicola vulgatus, 2 µM.
For data set [4] the following is noted: bacteroides fragilis, 12 h, 2 µM.
Description: The drug is tested on Bacteroides fragilis strain: DS-208 for biotransformation. The drug concentrations were measured before and after a 12-h incubation by liquid-chromatography-coupled mass spectrometry (LC–MS)
The conditions of data set [5]: anaerostipes sp., 12 h, 2 µM.
Description: The drug is tested on Anaerostipes sp. strain: fecal isolate for biotransformation. The drug concentrations were measured before and after a 12-h incubation by liquid-chromatography-coupled mass spectrometry (LC–MS)
Data set [6] in a line: The drug is tested on Clostridium sp. strain: fecal isolate for biotransformation. The drug concentrations were measured before and after a 12-h incubation by liquid-chromatography-coupled mass spectrometry (LC–MS). The note with it: 2 µM.
The nature of data set [7]: The drug is tested on Bifidobacterium longum subsp. Infantis strain: CCUG52486 for biotransformation. The drug concentrations were measured before and after a 12-h incubation by liquid-chromatography-coupled mass spectrometry (LC–MS). The note with it: 2 µM.
For data set [8] the following is noted: parabacteroides johnsonii, 12 h, 2 µM.
Description: The drug is tested on Parabacteroides johnsonii strain: DSM18315 for biotransformation. The drug concentrations were measured before and after a 12-h incubation by liquid-chromatography-coupled mass spectrometry (LC–MS)
Data set [9] is described as follows: The drug is tested on Parabacteroides merdae strain: ATCC43184 for biotransformation. The drug concentrations were measured before and after a 12-h incubation by liquid-chromatography-coupled mass spectrometry (LC–MS). The note with it: 2 µM.
The nature of data set [10]: The drug is tested on Clostridium scindens strain: ATCC35704 for biotransformation. The drug concentrations were measured before and after a 12-h incubation by liquid-chromatography-coupled mass spectrometry (LC–MS). Particulars: 2 µM.
Data set [11] can be described thus: The drug is tested on Bacteroides cellulosilyticus strain: DSM14838 for biotransformation. The drug concentrations were measured before and after a 12-h incubation by liquid-chromatography-coupled mass spectrometry (LC–MS). Particulars: 2 µM.
The nature of data set [12]: The drug is tested on Ruminococcus gnavus strain: ATCC29149 for biotransformation. The drug concentrations were measured before and after a 12-h incubation by liquid-chromatography-coupled mass spectrometry (LC–MS). Particulars: mediterraneibacter gnavus, 2 µM.
For data set [13] the following is noted: bifidobacterium adolescentis, 12 h, 2 µM.
Description: The drug is tested on Bifidobacterium adolescentis strain: ATCC 15703 for biotransformation. The drug concentrations were measured before and after a 12-h incubation by liquid-chromatography-coupled mass spectrometry (LC–MS)
The conditions of data set [14]: bacteroides thetaiotaomicron, 12 h, 2 µM.
Description: The drug is tested on Bacteroides thetaiotaomicron strain: VPI-5482 for biotransformation. The drug concentrations were measured before and after a 12-h incubation by liquid-chromatography-coupled mass spectrometry (LC–MS)
A short description of data set [15]: The drug is tested on Bifidobacterium ruminantium strain: fecal isolate for biotransformation. The drug concentrations were measured before and after a 12-h incubation by liquid-chromatography-coupled mass spectrometry (LC–MS). The note with it: 2 µM.
Data set [16] is described as follows: The drug is tested on Ruminococcus torques strain: ATCC27756 for biotransformation. The drug concentrations were measured before and after a 12-h incubation by liquid-chromatography-coupled mass spectrometry (LC–MS). It counts as ADME. Set-up: dose 2 uM, timepoint 0 vs 12 hours. The note with it: 2 µM.
Data set [17] in a line: The drug is tested on Ruminococcus lactaris strain: ATCC29176 for biotransformation. The drug concentrations were measured before and after a 12-h incubation by liquid-chromatography-coupled mass spectrometry (LC–MS). The note with it: 2 µM.
Data set [18] in a line: The drug is tested on Dorea formicigenerans strain: ATCC27755 for biotransformation. The drug concentrations were measured before and after a 12-h incubation by liquid-chromatography-coupled mass spectrometry (LC–MS). Particulars: 2 µM.
Data set [19] in a line: The drug is tested on Anaerotruncus colihominis strain: DSM17241 for biotransformation. The drug concentrations were measured before and after a 12-h incubation by liquid-chromatography-coupled mass spectrometry (LC–MS). Particulars: 2 µM.
A short description of data set [20]: The drug is tested on Bacteroides caccae strain: ATCC43185 for biotransformation. The drug concentrations were measured before and after a 12-h incubation by liquid-chromatography-coupled mass spectrometry (LC–MS). The note with it: 2 µM.

`C=CC[C@@H]1/C=C(\C)C[C@H](C)C[C@H](OC)[C@H]2O[C@@](O)(C(=O)C(=O)N3CCCC[C@H]3C(=O)O[C@H](/C(C)=C/[C@@H]3CC[C@@H](O)[C@H](OC)C3)[C@H](C)[C@@H](O)CC1=O)[C@H](C)C[C@@H]2OC.O` [TACROLIMUS]: the “Bacterial Biotransformation” value is “Compound metabolized” in [1]; “Compound metabolized” in [2]; “Compound NOT metabolized” in data set [3]; “Compound NOT metabolized” in data set [4]; “Compound metabolized” in data set [5]; “Compound metabolized” in [6]. The “Bacterial Biotransformation” value was “Compound NOT metabolized” in [7]; “Compound metabolized” in data set [8]; “Compound NOT metabolized” in [9]; “Compound metabolized” in [10]; “Compound metabolized” in [11]; “Compound metabolized” in [12]. The “Bacterial Biotransformation” value is reported as “Compound NOT metabolized” in data set [13]; “Compound NOT metabolized” in data set [14]; “Compound NOT metabolized” in [15]; “Compound NOT metabolized” in [16]; “Compound metabolized” in data set [17]; “Compound NOT metabolized” in [18]. Further, in data set [19], the “Bacterial Biotransformation” value is “Compound metabolized”.
In the case of `NC(CO)(CO)CO.O=C(c1ccccc1)c1ccc2n1CCC2C(=O)O` (configuration not stated) [KETOROLAC TROMETHAMINE], the “Bacterial Biotransformation” value in [1] was “Compound NOT metabolized”; in [2], “Compound NOT metabolized”; in data set [3], “Compound metabolized”; in data set [4], “Compound metabolized”; in data set [5], “Compound NOT metabolized”; in [6] it was “Compound metabolized”. Further, the “Bacterial Biotransformation” value is on record as “Compound NOT metabolized” in data set [7]; “Compound NOT metabolized” in data set [8]; “Compound NOT metabolized” in [20]; “Compound NOT metabolized” in data set [10]; “Compound NOT metabolized” in data set [11]; “Compound metabolized” in data set [12]. In addition, the “Bacterial Biotransformation” value is on record as “Compound NOT metabolized” in data set [13]; “Compound metabolized” in data set [14]; “Compound NOT metabolized” in data set [15]; “Compound NOT metabolized” in [17]; “Compound NOT metabolized” in data set [18]; “Compound NOT metabolized” in data set [19].
`CC1=C(CC(=O)O)c2cc(F)ccc2/C1=C\c1ccc([S+](C)[O-])cc1` (configuration not stated): the “Bacterial Biotransformation” value in [1], in [2], in data set [3], in data set [4], in data set [5] and in data set [6] was “Compound NOT metabolized” each time. Moreover, the “Bacterial Biotransformation” value in data set [7], in data set [8], in data set [9], in [10], in data set [11] and in [12] was “Compound NOT metabolized” each time. Further, the “Bacterial Biotransformation” value in data set [13], in [14], in data set [15], in data set [16], in [17] and in data set [18] was “Compound NOT metabolized” in each case. The “Bacterial Biotransformation” value in data set [19] is given as “Compound NOT metabolized”.
Turning to `O=c1[nH]c2ccccc2n1C1CCN(CCCC(c2ccc(F)cc2)c2ccc(F)cc2)CC1` [PIMOZIDE], the “Bacterial Biotransformation” value in data set [1], in data set [2], in data set [3], in [4], in data set [5] and in [6] was “Compound NOT metabolized” throughout. Moreover, the “Bacterial Biotransformation” value in data set [7], in data set [8], in [9], in data set [20], in [11] and in data set [12] was “Compound NOT metabolized” each time. Also, the “Bacterial Biotransformation” value in data set [13], in data set [14], in data set [15], in data set [16], in [17] and in [18] was “Compound NOT metabolized” in each case. In data set [19], the “Bacterial Biotransformation” value is “Compound metabolized”.
For `O=C1CC[C@@H](C(=O)N2CSC[C@H]2C(=O)O)N1` [PIDOTIMOD] ([pGlu]-[Thz]-OH), the “Bacterial Biotransformation” value in data set [1] is “Compound NOT metabolized”; in data set [2] it was “Compound NOT metabolized”; in data set [3], “Compound NOT metabolized”; in data set [4], “Compound metabolized”; in data set [5] it was “Compound NOT metabolized”; in data set [6], “Compound metabolized”. Moreover, the “Bacterial Biotransformation” value is “Compound NOT metabolized” in data set [7]; “Compound metabolized” in data set [8]; “Compound NOT metabolized” in data set [10]; “Compound NOT metabolized” in data set [11]; “Compound NOT metabolized” in data set [12]; “Compound NOT metabolized” in data set [13]. For the same compound, the “Bacterial Biotransformation” value in [14] was “Compound metabolized”; in data set [15] it was “Compound NOT metabolized”; in [16] it was “Compound NOT metabolized”; in [17], “Compound NOT metabolized”; in data set [18] it was “Compound NOT metabolized”; in data set [19], “Compound NOT metabolized”.
In the case of `COc1ccc(CN2CCNCC2)c(OC)c1OC.Cl.Cl` [TRIMETAZIDINE DIHYDROCHLORIDE], the “Bacterial Biotransformation” value in [1] was “Compound metabolized”; in [2], “Compound NOT metabolized”; in [3], “Compound metabolized”; in data set [5], “Compound NOT metabolized”; in data set [6], “Compound NOT metabolized”; in data set [7], “Compound metabolized”. Further, the “Bacterial Biotransformation” value is listed as “Compound metabolized” in data set [8]; “Compound metabolized” in data set [9]; “Compound NOT metabolized” in [20]; “Compound NOT metabolized” in data set [10]; “Compound metabolized” in [11]; “Compound NOT metabolized” in [12]. Further, the “Bacterial Biotransformation” value in data set [13] is given as “Compound NOT metabolized”; in data set [14] it was “Compound metabolized”; in data set [15], “Compound NOT metabolized”; in data set [16] it was “Compound NOT metabolized”; in data set [17], “Compound NOT metabolized”; in data set [18] it was “Compound NOT metabolized”. The “Bacterial Biotransformation” value in data set [19] was “Compound NOT metabolized”.
